In patent US4248863A, “Antibiotics saframycins A, B, C, D and E and process for producing the same” (priority 1977, dated 1981):
Converted amounts (≈) assume the structure as drawn.

Key:
Mycobacterium avium = test: Antimicrobial spectrum, MIC (Table 4); type: cell-based; details: Mycobacterium avium; 3% glycerol nutrient agar for acid-fast bacteria, 37° C., 24 or 48 hours; read-out: MIC
[1] = tested on: Staphylococcus aureus 209P; test: Antimicrobial spectrum, MIC (Table 4); type: cell-based; details: Staphylococcus aureus, 209P; 1% glucose nutrient agar, 37° C., 24 or 48 hours; read-out: MIC
Aspergillus oryzae = test: Antimicrobial spectrum, MIC (Table 4); details: Aspergillus oryzae, 48 h
Mucor mucedo = test: Antimicrobial spectrum, MIC (Table 4); details: Mucor mucedo, 48 h
Saccharomyces cerevisiae = test: Antimicrobial spectrum, MIC (Table 4); details: Saccharomyces cerevisiae, 48 h
Klebsiella pneumoniae = test: Antimicrobial spectrum, MIC (Table 4); type: cell-based; details: Klebsiella pneumoniae; 1% glucose nutrient agar, 37° C., 24 or 48 hours; read-out: MIC
Candida albicans = test: Antimicrobial spectrum, MIC (Table 4); details: Candida albicans, 48 h
in vivo = details: mouse, ip
Escherichia coli = test: Antimicrobial spectrum, MIC (Table 4); type: cell-based; details: Escherichia coli; 1% glucose nutrient agar, 37° C., 24 or 48 hours; read-out: MIC
Penicillium glaucum = test: Antimicrobial spectrum, MIC (Table 4); details: Penicillium, 48 h
Rhodotorula glutinis = test: Antimicrobial spectrum, MIC (Table 4); details: Rhodotorula glutinis, 48 h
Aspergillus niger = test: Antimicrobial spectrum, MIC (Table 4); details: Aspergillus niger, 48 h
Bacillus subtilis = test: Antimicrobial spectrum, MIC (Table 4); type: cell-based; details: Bacillus subtilis; 1% glucose nutrient agar, 37° C., 24 or 48 hours; read-out: MIC
Micrococcus luteus = test: Antimicrobial spectrum, MIC (Table 4); type: cell-based; details: Micrococcus luteus; 1% glucose nutrient agar, 37° C., 24 or 48 hours; read-out: MIC
Staphylococcus albus = test: Antimicrobial spectrum, MIC (Table 4); type: cell-based; details: Staphylococcus; 1% glucose nutrient agar, 37° C., 24 or 48 hours; read-out: MIC
Nocardia asteroides = test: Antimicrobial spectrum, MIC (Table 4); type: cell-based; details: Nocardia asteroides; 37° C., 24 or 48 hours; read-out: MIC
Bacillus cereus = test: Antimicrobial spectrum, MIC (Table 4); type: cell-based; details: Bacillus cereus; 1% glucose nutrient agar, 37° C., 24 or 48 hours; read-out: MIC
[2] = tested on: Shigella dysenteriae Shiga; test: microbe, parasite or virus in culture; type: cell-based; details: Shigella dysenteriae
Brucella abortus = test: microbe, parasite or virus in culture; type: cell-based; details: Brucella abortus
[3] = tested on: Streptococcus pyogenes 090R; test: Antimicrobial spectrum, MIC (Table 4); type: cell-based; details: Streptococcus pyogenes, 090R; blood agar, 37° C., 24 or 48 hours; read-out: MIC
Streptococcus pyogenes = test: Antimicrobial spectrum, MIC (Table 4); type: cell-based; details: Streptococcus pyogenes; blood agar, 37° C., 24 or 48 hours; read-out: MIC
Corynebacterium xerosis = test: Antimicrobial spectrum, MIC (Table 4); type: cell-based; details: Corynebacterium xerosis; 1% glucose nutrient agar, 37° C., 24 or 48 hours; read-out: MIC
[4] = tested on: Trichophyton mentagrophytes; test: Antimicrobial spectrum, MIC (Table 4); details: Trichophyton mentagrophytes, 72 h
Salmonella typhimurium = test: Antimicrobial spectrum, MIC (Table 4); type: cell-based; details: Salmonella enterica, TYPHIMURIUM; 1% glucose nutrient agar, 37° C., 24 or 48 hours; read-out: MIC
Streptococcus faecalis = test: Antimicrobial spectrum, MIC (Table 4); type: cell-based; details: Enterococcus faecalis; 1% glucose nutrient agar, 37° C., 24 or 48 hours; read-out: MIC
Staphylococcus citreus = test: Antimicrobial spectrum, MIC (Table 4); type: cell-based; details: Staphylococcus; 1% glucose nutrient agar, 37° C., 24 or 48 hours; read-out: MIC
Pseudomonas aeruginosa = test: Antimicrobial spectrum, MIC (Table 4); type: cell-based; details: Pseudomonas aeruginosa; 1% glucose nutrient agar, 37° C., 24 or 48 hours; read-out: MIC
[5] = tested on: Staphylococcus salivarius; test: Antimicrobial spectrum, MIC (Table 4); type: cell-based; details: Staphylococcus; 1% glucose nutrient agar, 37° C., 24 or 48 hours; read-out: MIC
Mycobacterium sp. 607 = test: Antimicrobial spectrum, MIC (Table 4); type: cell-based; details: Mycobacterium, SP.607; 3% glycerol nutrient agar for acid-fast bacteria, 37° C., 24 or 48 hours; read-out: MIC
[6] = tested on: Corynebacterium dephtheriae; test: Antimicrobial spectrum, MIC (Table 4); type: cell-based; details: Corynebacterium; 1% glucose nutrient agar, 37° C., 24 or 48 hours; read-out: MIC
[7] = tested on: Staphylococcus aureus Smith; test: Antimicrobial spectrum, MIC (Table 4); type: cell-based; details: Staphylococcus aureus; 1% glucose nutrient agar, 37° C., 24 or 48 hours; read-out: MIC
Serratia marcescens = test: Antimicrobial spectrum, MIC (Table 4); type: cell-based; details: Serratia marcescens; 1% glucose nutrient agar, 37° C., 24 or 48 hours; read-out: MIC
Mycobacterium phlei = test: Antimicrobial spectrum, MIC (Table 4); type: cell-based; details: Mycolicibacterium phlei; 3% glycerol nutrient agar for acid-fast bacteria, 37° C., 24 or 48 hours; read-out: MIC
Toxicity in mice = details: mouse, in vivo
[8] = tested on: mouse lymphocytic leukemia L1210; test: Effect on mouse lymphocytic leukemia L1210 in vivo; details: DBF1 mice, 1×10^5 cells intraperitoneal; 1.5 mg/kg daily for 2 days intraperitoneal, started 3 hours after implantation
Method: When DDY mice were implanted with 1×10^5 cells of Ehrlich ascites tumor and daily intraperitoneal treatment of saframycin A at a dose of 0.5 mg/kg was initiated 24 hours after tumor implantation for 4 days, 30% of mice were cured and survived more than 30 days. With a dose of 1.0 mg/kg, 60% of mice was cured. The effects of saframycin A by intraperitoneal treatment on mouse lymphocytic leukemia L1210 and lymphoid leukemia P388 were studied with DBF1 mice. […] With P388 tumor, the inoculum size of 1×10^6 cells was employed and the treatment was initiated after 24 hours. Saframycin A at a daily dose of 0.75 mg/kg for 10 days produced T/C of 219%. The effect of saframycin A was then studied against human tumors, two lines of uterine cervical carcinoma, melanoma, oat cell carcinoma and stomach carcinoma, heterotransplanted to nude mice.

Ehrlich ascites tumor = test: Activity against Ehrlich ascites tumor in DDY mice; type: in vivo; details: 1×10^5 cells, initiated 24 hours after implantation, 4 days
[9] = tested on: uterine cervical carcinoma; test: Effect against human tumors heterotransplanted to nude mice; type: in vivo, human tumor in nude mice; details: human tumor heterotransplanted to nude mice
stomach carcinoma = test: as above; type: in vivo, human tumor in nude mice; details: human tumor heterotransplanted to nude mice

With `COC1=C(C)C(=O)C2=C(C1=O)C1C3CC4=C(C(=O)C(OC)=C(C)C4=O)C(CNC(=O)C(C)=O)N3CC(C2)N1C` (stereo not drawn) [saframycin B] the MIC (Mycobacterium avium) was 100 µg/mL (≈ 186 µM), the MIC [1] was 12.5 µg/mL (≈ 23.3 µM) and the MIC (Aspergillus oryzae) was over 100 µg/mL. It also gave an MIC (Mucor mucedo) of over 100 µg/mL, an MIC (Saccharomyces cerevisiae) of over 100 µg/mL and an MIC (Klebsiella pneumoniae) of 12.5 µg/mL (≈ 23.3 µM). It also gave an MIC (Candida albicans) of over 100 µg/mL, an MTD (in vivo) of 250 mg/kg and an MIC (Escherichia coli) of over 100 µg/mL. For the same compound, the MIC (Penicillium glaucum) was over 100 µg/mL, the MIC (Rhodotorula glutinis) was over 100 µg/mL and the MIC (Aspergillus niger) was over 100 µg/mL. The MIC (Bacillus subtilis) was 25 µg/mL (≈ 46.5 µM), the MIC (Micrococcus luteus) was 1.56 µg/mL (≈ 2.9 µM) and the MIC (Staphylococcus albus) was 12.5 µg/mL (≈ 23.3 µM). The MIC (Nocardia asteroides) was 50 µg/mL (≈ 93 µM), the MIC (Bacillus cereus) was 100 µg/mL (≈ 186 µM) and the MIC [2] was over 100 µg/mL. It also gave an MIC (Brucella abortus) of 50 µg/mL (≈ 93 µM), an MIC [3] of 25 µg/mL (≈ 46.5 µM) and an MIC (Streptococcus pyogenes) of 12.5 µg/mL (≈ 23.3 µM). It also gave an MIC (Corynebacterium xerosis) of 12.5 µg/mL (≈ 23.3 µM), an MIC [4] of over 100 µg/mL and an MIC (Salmonella typhimurium) of over 100 µg/mL. It also gave an MIC (Streptococcus faecalis) of over 100 µg/mL, an MIC (Staphylococcus citreus) of 12.5 µg/mL (≈ 23.3 µM) and an MIC (Pseudomonas aeruginosa) of over 100 µg/mL. It also gave an MIC [5] of 100 µg/mL (≈ 186 µM), an MIC (Mycobacterium sp. 607) of 100 µg/mL (≈ 186 µM) and an MIC [6] of 0.4 µg/mL (≈ 0.744 µM). For the same compound, the MIC [7] was 1.56 µg/mL (≈ 2.9 µM), the MIC (Serratia marcescens) was over 100 µg/mL and the MIC (Mycobacterium phlei) was 50 µg/mL (≈ 93 µM).
`COC1=C(C)C(=O)C2=C(C1=O)C1C3CC4=C(C(=O)C(OC)=C(C)C4=O)C(CNC(=O)C(C)=O)N3C(C#N)C(C2)N1C` (stereo not drawn) [saframycin A] gave an LD50 (Toxicity in mice; ip) of 40 mg/kg, an LD50 (Toxicity in mice; iv) of 12 mg/kg and an MIC (Mycobacterium avium) of 12.5 µg/mL (≈ 22.2 µM). For the same compound, the MIC [1] was 0.1 µg/mL (≈ 0.178 µM), the MIC (Aspergillus oryzae) was over 100 µg/mL and the MIC (Mucor mucedo) was over 100 µg/mL. It also gave an MIC (Saccharomyces cerevisiae) of over 100 µg/mL, an MIC (Klebsiella pneumoniae) of 6.25 µg/mL (≈ 11.1 µM) and an MIC (Candida albicans) of over 100 µg/mL. For the same compound, the “T/C (survival period of treated group over survival period of control group)” value [8] was 183%, the MIC (Escherichia coli) was 50 µg/mL (≈ 88.9 µM) and the MIC (Penicillium glaucum) was 50 µg/mL (≈ 88.9 µM). The MIC (Rhodotorula glutinis) was over 100 µg/mL, the MIC (Aspergillus niger) was over 100 µg/mL and the MIC (Bacillus subtilis) was 0.1 µg/mL (≈ 0.178 µM). For the same compound, the MIC (Micrococcus luteus) was 0.05 µg/mL (≈ 0.0889 µM), the MIC (Staphylococcus albus) was 0.1 µg/mL (≈ 0.178 µM) and the MIC (Nocardia asteroides) was 6.25 µg/mL (≈ 11.1 µM). For the same compound, the MIC (Bacillus cereus) was 12.5 µg/mL (≈ 22.2 µM), the “mice cured and survived more than 30 days” value (Ehrlich ascites tumor; 0.5 mg/kg daily intraperitoneal) was 30% and the mice cured (Ehrlich ascites tumor; 1.0 mg/kg daily intraperitoneal) was 60%. It also gave an MIC [2] of 25 µg/mL (≈ 44.4 µM), an MIC (Brucella abortus) of 6.25 µg/mL (≈ 11.1 µM) and an MIC [3] of 6.25 µg/mL (≈ 11.1 µM). The MIC (Streptococcus pyogenes) was 0.78 µg/mL (≈ 1.39 µM), the MIC (Corynebacterium xerosis) was under 0.003 µg/mL and the MIC [4] was over 100 µg/mL. For the same compound, the MIC (Salmonella typhimurium) was 100 µg/mL (≈ 178 µM), the “activity against cervical carcinoma” value [9] was “selectively active on cervical carcinoma and stomach carcinoma producing the inhibition of tumor growth and significant histological changes in tumor tissue” and the MIC (Streptococcus faecalis) was 6.25 µg/mL (≈ 11.1 µM). It also gave an MIC (Staphylococcus citreus) of 0.1 µg/mL (≈ 0.178 µM), an MIC (Pseudomonas aeruginosa) of over 100 µg/mL and an MIC [5] of 6.25 µg/mL (≈ 11.1 µM). For the same compound, the MIC (Mycobacterium sp. 607) was 12.5 µg/mL (≈ 22.2 µM), the MIC [6] was under 0.003 µg/mL and the “activity against stomach carcinoma” value (stomach carcinoma) was “selectively active on cervical carcinoma and stomach carcinoma producing the inhibition of tumor growth and significant histological changes in tumor tissue”. For the same compound, the MIC [7] was 0.05 µg/mL (≈ 0.0889 µM), the MIC (Serratia marcescens) was over 100 µg/mL and the MIC (Mycobacterium phlei) was 25 µg/mL (≈ 44.4 µM).
